Measurements published in patent US8361998B2, “Compounds and their use as IKACh blockers” (AstraZeneca AB, priority 2010, dated 2013).
pIC50: −log10 of the molar value.

Biological target: T1, human cardiac ion channel proteins hKir3.1/Kir3.4 (Homo sapiens, UniProt P48544+P48549)
T1 construct: expressed in transfected cells
T1 sequence (P48549 1-501): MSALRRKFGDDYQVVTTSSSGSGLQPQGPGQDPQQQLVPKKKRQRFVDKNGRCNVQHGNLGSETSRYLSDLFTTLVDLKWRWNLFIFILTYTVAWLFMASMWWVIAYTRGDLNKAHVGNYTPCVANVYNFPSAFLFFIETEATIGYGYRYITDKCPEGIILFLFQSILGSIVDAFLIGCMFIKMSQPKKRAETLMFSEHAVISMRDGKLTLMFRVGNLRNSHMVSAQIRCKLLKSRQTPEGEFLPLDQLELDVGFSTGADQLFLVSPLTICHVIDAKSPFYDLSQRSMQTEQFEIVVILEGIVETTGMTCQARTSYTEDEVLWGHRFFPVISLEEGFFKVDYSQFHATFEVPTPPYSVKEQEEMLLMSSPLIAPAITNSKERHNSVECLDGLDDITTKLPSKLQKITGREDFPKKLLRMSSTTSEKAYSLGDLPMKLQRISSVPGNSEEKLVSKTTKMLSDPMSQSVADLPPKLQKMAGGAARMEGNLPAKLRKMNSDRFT
T1 sequence (P48544 1-419): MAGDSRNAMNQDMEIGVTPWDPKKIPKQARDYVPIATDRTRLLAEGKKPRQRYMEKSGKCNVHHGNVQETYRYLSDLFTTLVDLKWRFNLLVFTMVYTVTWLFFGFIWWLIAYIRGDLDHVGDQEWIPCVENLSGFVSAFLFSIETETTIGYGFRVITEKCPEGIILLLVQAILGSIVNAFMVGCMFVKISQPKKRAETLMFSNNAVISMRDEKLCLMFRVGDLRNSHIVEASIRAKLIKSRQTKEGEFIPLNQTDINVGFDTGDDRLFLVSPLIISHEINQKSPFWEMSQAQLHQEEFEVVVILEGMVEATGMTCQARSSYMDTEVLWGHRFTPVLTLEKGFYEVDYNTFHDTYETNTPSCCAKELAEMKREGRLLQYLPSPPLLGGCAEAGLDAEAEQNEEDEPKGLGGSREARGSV
Test: Atomic Absorption Screening (AAS) Rb efflux assay of hKir3.1/Kir3.4 block, carbachol/high K+ stimulated, 10-pt or 7-pt CR
Type: cell-based
Details: 7-pt CR (0.037 to 27 μmol/L), AAS Rb efflux, CHO-K1 cells expressing hKir3.1/Kir3.4; mean of >3 replicates; read-out: IKACh IC50 7-pt CR, AAS
How it was run: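 CHO-K1 cells stably co-expressing human Kir3.1/Kir3.4 were Rb-loaded for 3 h at 37° C, preincubated with compound 5 min at RT, then stimulated 10 min with 10 μM carbachol plus 20 mM KCl (final). Supernatant Rb was measured by atomic absorption. Compounds ran at 0.003–67 μmol/L (10-pt) or 0.037–27 μmol/L (7-pt), threefold dilutions; IC50s are means of >4 or >3 replicates respectively.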

Row | Compound | pIC50
1 | Cc1c(F)cccc1C(=O)N(C)[C@H](CN1CCCCC1)C(C)C [Example 16.38, (S)-3-Fluoro-N,2-dimethyl-N-(3-methyl-1-(piperidin-1-yl)butan-2-yl)benzamide] | 4.77
2 | Cc1cccc(C(=O)N(C)[C@H](CN2CCCCC2)C(C)C)c1 [Example 16.29, N,3-Dimethyl-N-[(1S)-2-methyl-1-(piperidin-1-ylmethyl)propyl]benzamide] | 5.06
3 | CC(C)[C@@H](CN1CC[C@H](O)C1)N(C)C(=O)c1ccc(OC(F)(F)F)cc1 [Example 16.41, N-[(1S)-1-{[(3S)-3-Hydroxypyrrolidin-1-yl]methyl}-2-methylpropyl]-N-methyl-4-(trifluoromethoxy)benzamide] | 5.17
4 | CC(C)[C@@H](CN1CCCCC1)N(C)C(=O)c1ccc(Cl)cc1F [Example 16.31, 4-Chloro-2-fluoro-N-methyl-N-[(1S)-2-methyl-1-(piperidin-1-ylmethyl)propyl]-benzamide] | 5.62
5 | COc1cc(C(=O)N(C)[C@H](CN2CCCC2)C(C)C)ccc1F [Example 16.11, (S)-4-Fluoro-3-methoxy-N-methyl-N-(3-methyl-1-(pyrrolidin-1-yl)butan-2-yl)benzamide] | 4.96
6 | CC(C)[C@@H](CN1CCCC1)N(C)C(=O)c1cccc(OC(F)(F)F)c1 [Example 16.16, (S)—N-Methyl-N-(3-methyl-1-(pyrrolidin-1-yl)butan-2-yl)-3-(tri-fluoromethoxy)benzamide] | 5.59

Same assay, conditions: 10-pt CR (0.003 to 67 μmol/L), AAS Rb efflux, CHO-K1 cells expressing hKir3.1/Kir3.4; mean of >4 replicates; read-out: IKACh IC50 10-pt CR, AAS

Row | Compound | pIC50
7 | Cc1cc(C(=O)N(C)[C@H](CN2CCC2)C(C)C)ccc1F [Example 1.10, (S)-N-(1-(Azetidin-1-yl)-3-methylbutan-2-yl)-4-fluoro-N,3-dimethylbenzamide] | 5.16
8 | CO[C@H](C)[C@@H](CN1CCCC1)N(C)C(=O)c1ccc(F)c(Cl)c1 [Example 3.3, 3-Chloro-4-fluoro-N-((2R,3R)-3-methoxy-1-(pyrrolidin-1-yl)butan-2-yl)-N-methylbenzamide] | 5.14
9 | CN(C(=O)c1ccc(F)c(F)c1)[C@H](CN1CCCC1)C1CC1 [Example 3.16, (S)-N-(1-Cyclopropyl-2-(pyrrolidin-1-yl)ethyl)-3,4-difluoro-N-methylbenzamide] | 4.89
10 | CC(C)[C@@H](CN1C[C@H](O)[C@@H](O)C1)N(C)C(=O)c1ccc(Cl)c(F)c1 [Example 8.15, 4-Chloro-N-((S)-1-((3S,4S)-3,4-dihydroxypyrrolidin-1-yl)-3-methylbutan-2-yl)-3-fluoro-N-methylbenzamide] | 5.35
11 | CN(C(=O)c1ccc(Cl)cc1)[C@H](CN1CCCC1)C1CC1 [Example 3.14, (S)-4-Chloro-N-(1-cyclopropyl-2-(pyrrolidin-1-yl)ethyl)-N-methylbenzamide] | 5.24
12 | Cc1cccc(C(=O)N(C)[C@H](CN2CCCCC2)C(C)C)c1 [Example 16.29, N,3-Dimethyl-N-[(1S)-2-methyl-1-(piperidin-1-ylmethyl)propyl]benzamide] | 5.03
13 | COC1CCN(C[C@H](C(C)C)N(C)C(=O)c2ccc(C)c(C)c2)CC1 [Example 3.12, (S)-N-(1-(4-Methoxypiperidin-1-yl)-3-methylbutan-2-yl)-N,3,4-trimethylbenzamide] | 5.60
14 | CN(C(=O)c1ccc(Cl)cc1)C(CN1CC(O)C1)C1CCCC1 (single isomer, unassigned) [32.3, isomer 1] | 7.26
15 | COC1CCN(C[C@H](C(C)C)N(C)C(=O)c2ccc(F)c(Cl)c2)CC1 [Example 3.9, (S)-3-Chloro-4-fluoro-N-(1-(4-methoxypiperidin-1-yl)-3-methylbutan-2-yl)-N-methylbenzamide] | 5.52
16 | CC[C@H](C)[C@@H](CN1CCCC1)N(C)C(=O)c1ccc(Br)cc1 [Example 2.4, 4-Bromo-N-methyl-N-((2S,3S)-3-methyl-1-(pyrrolidin-1-yl)pentan-2-yl)benzamide] | 5.74
17 | Cc1cccc(C(=O)N(C)[C@H](CN2CCCC2)C2CC2)c1 [Example 3.17, (S)-N-(1-Cyclopropyl-2-(pyrrolidin-1-yl)ethyl)-N,3-dimethyl-benzamide] | 5.03
18 | CO[C@H](C)[C@@H](CN1CC(O)C1)N(C)C(=O)c1ccc(Cl)cc1 [Example 30, 4-Chloro-N-((2R,3R)-1-(3-hydroxyazetidin-1-yl)-3-methoxybutan-2-yl)-N-methylbenzamide] | 5.20
19 | CCC[C@@H](CN1CC(O)C1)N(C)C(=O)c1cccc(C(F)(F)F)c1 [Example 8.8, (S)-N-(1-(3-Hydroxyazetidin-1-yl)pentan-2-yl)-N-methyl-3-(tri-fluoromethyl)benzamide] | 5.62

Next, values leading:

Row | pIC50 | Compound
20 | 4.96 | Cc1ccc(C(=O)N(C)[C@H](CN2CCCC(F)(F)C2)C(C)C)cc1C [Example 16.3, (S)—N-(1-(3,3-Difluoropiperidin-1-yl)-3-methylbutan-2-yl)-N,3,4-trimethylbenzamide]
21 | 5.72 | CN(C(=O)c1cc(F)cc(C#N)c1)[C@H](CN1CC(O)C1)C1CCCCC1 [Example 36.6, 3-Cyano-N-[(1S)-1-cyclohexyl-2-(3-hydroxyazetidin-1-yl)ethyl]-5-fluoro-N-methylbenzamide]
22 | 6.01 | Cc1cc(C(=O)N(C)C(CN2CC(O)C2)C2CCCC2)ccc1F (single isomer, unassigned) [32.4, isomer 2]
23 | 4.82 | COc1ccc(C(=O)N(C)C(CN2CC(O)C2)C2CCCC2)cc1 (single isomer, unassigned) [32.2, isomer 2]
24 | 5.96 | COc1ccc(C(=O)N(C)[C@H](CN2CC(O)C2)C2CCC2)c(F)c1 [Example 39.5, (S)—N-(1-Cyclobutyl-2-(3-hydroxyazetidin-1-yl)ethyl)-2-fluoro-4-methoxy-N-methylbenzamide]
25 | 6.60 | CN(C(=O)c1cccc(C(F)F)c1)[C@H](CN1CC(O)C1)C1CCC1 [Example 39.15, (S)—N-(1-Cyclobutyl-2-(3-hydroxyazetidin-1-yl)ethyl)-3-(difluoromethyl)-N-methylbenzamide]
26 | 5.59 | Cc1cc(C(=O)N(C)[C@H](CN2CC(O)(C3CC3)C2)C2CC2)ccc1F [Example 9.1, (S)—N-(1-Cyclopropyl-2-(3-cyclopropyl-3-hydroxyazetidin-1-yl)ethyl)-4-fluoro-N,3-dimethylbenzamide]
27 | 5.77 | CCC[C@@H](CN1CC(OCC#N)C1)N(C)C(=O)c1ccc(Cl)cc1 [Example 31.3, 4-chloro-N-{(2S)-1-[3-(cyanomethoxy)azetidin-1-yl]pentan-2-yl}-N-methylbenzamide]

Same assay, conditions: printed as IC50 >67 μM in the 10-pt CR assay or IC50 >27 μM in the 7-pt CR assay; assay format per compound not stated; read-out: IC50

Row | pIC50 | Compound
28 | < 4.57 | CC(C)[C@@H](CCN1CCCC1)N(C)C(=O)c1ccccc1 [N-Methyl-N-[(1R)-2-methyl-1-(2-pyrrolidin-1-ylethyl)propyl]benzamide]
29 | < 4.57 | CC(C)[C@@H](CN1CCCCC1)N(C)C(=O)c1cc(F)cc(F)c1F [2,3,5-Trifluoro-N-methyl-N-[(1S)-2-methyl-1-(piperidin-1-ylmethyl)propyl]benzamide]
30 | < 4.57 | Cc1cc(C(=O)N(C)[C@H](CN2CCC(F)(F)CC2)C(C)C)ccc1F [(S)-N-(1-(4,4-Difluoropiperidin-1-yl)-3-methylbutan-2-yl)-4-fluoro-N,3-dimethylbenzamide]
31 | < 4.57 | CCC[C@@H](CN1C[C@@H](O)[C@@H]1C)N(C)C(=O)c1ccc(F)c(F)c1 [3,4-Difluoro-N-((S)-1-((2S,3R)-3-hydroxy-2-methylazetidin-1-yl)pentan-2-yl)-N-methylbenzamide]
32 | < 4.57 | CN(C(=O)c1ccc(C#N)cc1)[C@H](CN1CCC1)C1CC1 [N-[(1S)-2-(Azetidin-1-yl)-1-cyclopropyl-ethyl]-4-cyano-N-methyl-benzamide]
33 | < 4.57 | CC(C)[C@@H](CN1CC[C@H](O)C1)N(C)C(=O)c1cc(C(F)(F)F)ccc1F [2-Fluoro-N-[(1S)-1-{[(3S)-3-hydroxypyrrolidin-1-yl]methyl}-2-methylpropyl]-N-methyl-5-(trifluoromethyl)benzamide]

Row | Compound | pIC50
34 | C[C@@H](CN1CCCC1)N(C)C(=O)c1ccc(Br)cc1 [4-Bromo-N-methyl-N-[(1S)-1-methyl-2-pyrrolidin-1-ylethyl]benzamide] | < 4.57
35 | CC(C)[C@@H](CN1CCCC(F)(F)C1)N(C)C(=O)c1ccc(F)c(F)c1 [(S)-N-(1-(3,3-Difluoropiperidin-1-yl)-3-methylbutan-2-yl)-3,4-difluoro-N-methylbenzamide] | < 4.57
